The results in this text go back to patent publication US20100209536A1, “Methods and Kits for Use in the Treatment and Prevention of Diseases or Conditions of the Immune System or Infectious Diseases” (The Brigham and Women's Hospital, Inc., priority 2006, published 2010).

Common to all, as to assay type: in vivo, human
In assay [1] the test system is any wheeze in the first 2 yrs. Briefly: Project Viva antioxidant study: maternal intake and any wheeze in the first 2 yrs. The settings on record: for Any wheeze in the first 2 yrs, Univariate Model OR (95% CI) / Any wheeze in the first 2 yrs, Multivariable Model OR (95% CI): including supplements; for Any Wheeze, Foods Only OR / Any Wheeze, Supplements Only OR: univariate; for Any Wheeze, Foods Only OR: intake from foods only; for Any Wheeze, Supplements Only OR: intake from supplements only; for Association of total maternal intake with any wheeze in univariable models: total intakes. An excerpt:
(§1) Study subjects were enrolled in Project Viva, as described above. Recruitment and retention procedures have previously been published (Gillman et al., J. Pediatr. 144:240-245, 2004). We obtained information directly from participants and from medical records as detailed previously (Rifas-Shiman, Paediatr. Perinat. Epidemiol. 20:35-42, 2006). Data collected from interviews and questionnaires included demographics (infant gender, maternal marital status, and race), socioeconomic status (education and household income), and reproductive history (maternal gravidity, pre-pregnancy height and body mass index, and smoking). Questionnaires that inquired about infant health, feeding, and the home environment were administered when the child was 6 months, 1 year, and 2 years of age. Among 2,128 delivered infants in Project Viva, we excluded 228 participants because of missing first and second trimester diet assessment data and an additional 37 participants with a gestation of less than 34 completed weeks.
(§2) We assessed maternal diet using semi-quantitative food-frequency questionnaires (FFQ) validated for use during pregnancy (Fawzi et al., Ann. Epidemiol. 14:754-762, 2004), and used in several of our previous studies of maternal diet and offspring outcomes (Oken et al., Am. J. Epidemiol. 160:774-783, 2004; Huh et al., Int. J. Epidemiol. 34:378-384, 2005; Gillman et al., Circulation 110:1990-1995, 2004). As noted above, the FFQ used at the 1st visit reflected intakes in the 1st trimester; the time referent was “during this pregnancy,” that is from the date of the last menstrual period until the assessment, at an average of about 10 weeks gestation. To assess vitamin and supplement intake during the 1st trimester, we administered a separate interview that queried dose, duration, and brand/type of multivitamin, prescribed prenatal vitamins, and supplements. Also as noted above, the FFQ used at the 2nd visit (26 to 28 weeks of gestation) reflected intakes during the 2nd trimester; the time referent was “during the past 3 months.” The 2nd trimester instrument was the same as that for the 1st trimester except that we assessed use of vitamins/supplements as part of the self-completed FFQ.
(§3) To calculate intake of nutrients, we again used the Harvard nutrient composition database, which contains food composition values from the U.S. Department of Agriculture, supplemented by other data sources (U.S. Department of Agriculture ARS. USDA National Nutrient Database for Standard Reference, Release 14, 5R14; 2001). All nutrients were adjusted for total energy intake using the nutrient residuals method (Willett, Am. J. Clin. Nutr. 45:354-360, 1987). Mean nutrient intakes from the 1st and 2nd trimesters were used as the exposure in the analyses. If a participant only completed one FFQ, then nutrients calculated from that questionnaire were taken as the exposure of interest. One thousand one hundred and thirty-five (88.0%) of the 1,290 participants completed both FFQs, 96 (7.4%) completed the first trimester FFQ only, and 59 (4.6%) completed the second trimester FFQ only.
(§4) We ascertained the wheeze outcomes from questions from the First Year and Second Year Questionnaires: “since your child was born/since your child was […], has he/she ever had wheezing (or whistiling in the chest)?” “Any wheeze” was defined as a positive response to the question at either the first or second year questionnaire. “Recurrent wheeze” was defined as positive responses to the questions in both the first and second year questionnaires. […] “Respiratory infections” was defined as positive responses to one of three questions: “since your child was born/12 months old, have you been told by a health care professional (such as a doctor, physician assistant, or nurse practitioner) that your child has: (a) bronchiolitis; (b) pneumonia; (c) bronchitis, croup, or any other respiratory infection?” on either the first or second year questionnaires. […]

In assay [2] the test system is recurrent wheeze in the first 2 yrs. Briefly: Project Viva antioxidant study: maternal intake and recurrent wheeze in the first 2 yrs. The conditions noted are these: for Recurrent wheeze in the first 2 yrs, Multivariable Model OR (95% CI) / Recurrent wheeze in the first 2 yrs, Univariate Model OR (95% CI): including supplements; for Recurrent Wheeze, Foods Only OR / Recurrent Wheeze, Supplements Only OR: univariate; for Recurrent Wheeze, Foods Only OR: intake from foods only; for Recurrent Wheeze, Supplements Only OR: intake from supplements only.
Source text: as §1, §2, §3, §4

Assay [3] concerns respiratory infections in the 2-year old children. The assay is described as follows: Project Viva antioxidant study: maternal intake and respiratory infections in 2-year old children.
Source text: as §1
We assessed maternal diet using semi-quantitative food-frequency questionnaires (FFQ) validated for use during pregnancy (Fawzi et al., Ann. Epidemiol. 14:754-762, 2004), and used in several of our previous studies of maternal diet and offspring outcomes (Oken et al., Am. J. Epidemiol. 160:774-783, 2004; Huh et al., Int. J. Epidemiol. 34:378-384, 2005; Gillman et al., Circulation 110:1990-1995, 2004). As noted above, the FFQ used at the 1st visit reflected intakes in the 1st trimester; the time referent was “during this pregnancy,” that is from the date of the last menstrual period until the assessment, at an average of about 10 weeks gestation. […] Also as noted above, the FFQ used at the 2nd visit (26 to 28 weeks of gestation) reflected intakes during the 2nd trimester; the time referent was “during the past 3 months.” The 2nd trimester instrument was the same as that for the 1st trimester except that we assessed use of vitamins/supplements as part of the self-completed FFQ. […]

In assay [4] the test system is severe asthma exacerbations in childhood asthmatics. The assay is described as follows: Childhood Asthma Management Program: baseline serum 25(OH)D and outcomes in childhood asthmatics on inhaled corticosteroid. An excerpt: We measured 25(OH)D levels in stored serum (collected on entry into the trial) from 305 childhood asthmatics who were randomized to the inhaled corticosteroid arm of the multi-center Childhood Asthma Management Program. We then analyzed baseline 25(OH)D levels for their association with severe asthma exacerbations (defined as emergency room visits or hospitalizations for asthma) over the course of the 4-year trial.

Setting [5] is: 2nd vs 1st (lowest) quartile of maternal intake, calorie adjusted, n = 1,161.
Where [6] appears, read: 2nd vs 1st (lowest) quartile of maternal intake.
The mark [7] stands for this setting: 3rd vs 1st (lowest) quartile of maternal intake.
The mark [8] stands for this setting: 4th (highest) vs 1st (lowest) quartile of maternal intake.
[9] abbreviates: 4th (highest) vs 1st (lowest) quartile of maternal intake, listed as vitamin E.
Where [10] appears, read: 4th (highest) vs 1st (lowest) quartile.
The mark [11] stands for this setting: 2nd vs 1st (lowest) quartile of maternal intake, n = 1,038.
Where [12] appears, read: 4th (highest) vs 1st (lowest) quartile of maternal intake, listed as zinc.

vitamin E: the “Any wheeze in the first 2 yrs, Univariate Model OR (95% CI)” value (from here on “Any wheeze … Univariate Model OR (95% CI)”) in assay [1] (setting [5]) was 0.71 (0.51, 1.01); in assay [1] (setting [7]), 0.67 (0.48, 0.95)^5; in assay [1] (setting [8]), 0.52 (0.36, 0.74)^5. The “Any wheeze in the first 2 yrs, Multivariable Model OR (95% CI)” value in assay [1] (setting [6]) is 0.90 (0.62, 1.31); in assay [1] (setting [7]), 0.84 (0.58, 1.22); in assay [1] (setting [8]) it was 0.70 (0.48, 1.03); in assay [1] (setting [9]), 0.70. Further, the results for the “Any Wheeze, Foods Only OR” value in assay [1] (2nd vs 1st (lowest) quartile), in assay [1] (3rd vs 1st (lowest) quartile) and in assay [1] (setting [10]) were 0.75, 0.67 and 0.69, respectively. Also, the “Any Wheeze, Supplements Only OR” value is on record as 0.86 in assay [1] (2nd vs 1st (lowest) quartile), 0.70 in assay [1] (3rd vs 1st (lowest) quartile) and 0.63 in assay [1] (setting [10]). Besides, the “Association of total maternal intake with any wheeze in univariable models” value (from here on “Association … in univariable models”) in assay [1] was “associated with lower risks”. For the same compound, the “Recurrent wheeze in the first 2 yrs, Multivariable Model OR (95% CI)” value in assay [2] (setting [6]) is recorded as 0.79 (0.47, 1.34); in assay [2] (setting [7]) it was 0.90 (0.54, 1.52); in assay [2] (setting [8]), 0.49 (0.27, 0.90)^5; in assay [2] (setting [9]), 0.49. The “Recurrent wheeze in the first 2 yrs, Univariate Model OR (95% CI)” value in assay [2] (setting [11]) is 0.60 (0.37, 0.98); in assay [2] (setting [7]) it was 0.68 (0.43, 1.10); in assay [2] (setting [8]), 0.36 (0.20, 0.62)^5. The figures for the “Recurrent Wheeze, Foods Only OR” value in assay [2] (2nd vs 1st (lowest) quartile), in assay [2] (3rd vs 1st (lowest) quartile) and in assay [2] (setting [10]) were 0.66, 0.58 and 0.61, respectively. The “Recurrent Wheeze, Supplements Only OR” value in assay [2] (2nd vs 1st (lowest) quartile) was 0.83; in assay [2] (3rd vs 1st (lowest) quartile), 0.50; in assay [2] (setting [10]), 0.56. In assay [3], the “Association of total maternal intake with respiratory infections in the children” value (from here on “Association … in the children”) is “not associated”.
`[Zn]` [Zinc, zinc]: the “Any wheeze … Univariate Model OR (95% CI)” value in assay [1] (setting [5]) is reported as 0.77 (0.55, 1.08); in assay [1] (setting [7]) it was 0.67 (0.47, 0.94)^5; in assay [1] (setting [8]), 0.49 (0.34, 0.70)^5. Further, the “Any wheeze in the first 2 yrs, Multivariable Model OR (95% CI)” value is 0.89 (0.61, 1.29) in assay [1] (setting [6]); 0.85 (0.59, 1.24) in assay [1] (setting [7]); 0.59 (0.41, 0.88)^5 in assay [1] (setting [8]); 0.59 in assay [1] (setting [12]). The “Any Wheeze, Foods Only OR” value in assay [1] (2nd vs 1st (lowest) quartile) is given as 0.85; in assay [1] (3rd vs 1st (lowest) quartile), 0.60; in assay [1] (setting [10]) it was 0.60. The “Any Wheeze, Supplements Only OR” value in assay [1] (2nd vs 1st (lowest) quartile) is on record as 0.98; in assay [1] (3rd vs 1st (lowest) quartile), 0.67; in assay [1] (setting [10]), 0.63. Further, the “Association … in univariable models” value in assay [1] is recorded as “associated with lower risks”. Besides, the “Recurrent wheeze in the first 2 yrs, Multivariable Model OR (95% CI)” value in assay [2] (setting [6]) is listed as 0.61 (0.35, 1.06); in assay [2] (setting [7]) it was 0.89 (0.53, 1.49); in assay [2] (setting [8]), 0.49 (0.27, 0.87); in assay [2] (setting [12]) it was 0.49. Moreover, the “Recurrent wheeze in the first 2 yrs, Univariate Model OR (95% CI)” value in assay [2] (setting [11]) is recorded as 0.56 (0.34, 0.92); in assay [2] (setting [7]), 0.73 (0.46, 1.17); in assay [2] (setting [8]), 0.41 (0.24, 0.69)^5. The “Recurrent Wheeze, Foods Only OR” value in assay [2] (2nd vs 1st (lowest) quartile) turned out to be 0.70; in assay [2] (3rd vs 1st (lowest) quartile), 0.65; in assay [2] (setting [10]), 0.68. The “Recurrent Wheeze, Supplements Only OR” value is 0.94 in assay [2] (2nd vs 1st (lowest) quartile), 0.59 in assay [2] (3rd vs 1st (lowest) quartile) and 0.51 in assay [2] (setting [10]). In addition, the “Association … in the children” value in assay [3] is given as “not associated”.
25-Hydroxyvitamin D [25(OH)D]: the “Association with lung function, bronchodilator response, or airway responsiveness” value in assay [4] (305 childhood asthmatics on inhaled corticosteroid) is reported as “no associations”. For the same compound, the “OR, severe asthma exacerbations over the course of the 4-year trial” value in assay [4] (children with 25(OH)D levels ≦30 ng/ml, on inhaled corticosteroid, adjusted for age, sex, height, baseline FEV1) is given as 1.76.
On to `O=C1O[C@H]([C@@H](O)CO)C(O)=C1O` [Vitamin C, ascorbic acid], for which the “Any wheeze … Univariate Model OR (95% CI)” value in assay [1] (setting [5]) is listed as 0.82 (0.58, 1.15); in assay [1] (setting [7]), 0.65 (0.46, 0.93)^5; in assay [1] (setting [8]) it was 0.67 (0.47, 0.94)^5. In addition, the “Any wheeze in the first 2 yrs, Multivariable Model OR (95% CI)” value in assay [1] (setting [6]) is given as 0.93 (0.65, 1.35); in assay [1] (setting [7]) it was 0.84 (0.58, 1.22); in assay [1] (setting [8]) it was 0.79 (0.54, 1.15). In assay [1], the “Association … in univariable models” value is reported as “associated with lower risks”. Further, the “Recurrent wheeze in the first 2 yrs, Multivariable Model OR (95% CI)” value in assay [2] (setting [6]) is 1.05 (0.62, 1.77); in assay [2] (setting [7]), 1.04 (0.60, 1.78); in assay [2] (setting [8]), 0.75 (0.41, 1.36). For the same compound, the “Recurrent wheeze in the first 2 yrs, Univariate Model OR (95% CI)” value was 1.02 (0.63, 1.65) in assay [2] (setting [11]); 0.85 (0.52, 1.40) in assay [2] (setting [7]); 0.56 (0.32, 0.97)^5 in assay [2] (setting [8]). The “Association … in the children” value in assay [3] was “not associated”.
